Laboratory results reported in PubChem BioAssay AID248 (DTP/NCI, 2004).
Values joined by “and” are separate entries in the source; they are usually repeats but may differ in a detail not shown here. Identical values can stand only once. Inconclusive results and toxic doses are left out. No stated cut-off is given here; in the data, active means T/C of 150% or more; inactive means T/C below 125%.

System: L1210 leukemia ip in BDF1 mice, survival T/C
Assay: NCI In Vivo Anticancer Drug Screen. Data for tumor model L1210 Leukemia (intraperitoneal) in B6D2F1 (BDF1) mice
Conditions: endpoint: mean survival time, higher = longer survival
Outline: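 Transplanted-tumor mice were given test agent; controls received vehicle only. Survival readings from the two groups were divided (treated over control).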

[1] = dose: 100.0 mg/kg/injection, schedule: Q01DX001 (ip), vehicle: carboxymethylcellulose (CMC)
[2] = dose: 200.0 mg/kg/injection, schedule: Q01DX001 (ip), vehicle: carboxymethylcellulose (CMC)
[3] = dose: 400.0 mg/kg/injection, schedule: Q01DX001 (ip), vehicle: carboxymethylcellulose (CMC)
[4] = dose: 100.0 mg/kg/injection, schedule: Q01DX001 (ip), vehicle: Klucel (hydroxypropylcellulose) (HPC)
[5] = dose: 100.0 mg/kg/injection, schedule: Q04DX003 (ip), vehicle: Klucel (hydroxypropylcellulose) (HPC)
[6] = dose: 200.0 mg/kg/injection, schedule: Q01DX001 (ip), vehicle: Klucel (hydroxypropylcellulose) (HPC)
[7] = dose: 200.0 mg/kg/injection, schedule: Q04DX003 (ip), vehicle: Klucel (hydroxypropylcellulose) (HPC)
[8] = dose: 400.0 mg/kg/injection, schedule: Q04DX003 (ip), vehicle: Klucel (hydroxypropylcellulose) (HPC)
[9] = dose: 100.0 mg/kg/injection, schedule: Q01DX001 (ip), vehicle: saline
[10] = dose: 100.0 mg/kg/injection, schedule: Q01DX009 (ip), vehicle: Klucel (hydroxypropylcellulose) (HPC)
[11] = dose: 200.0 mg/kg/injection, schedule: Q01DX001 (ip), vehicle: saline
[12] = dose: 400.0 mg/kg/injection, schedule: Q01DX001 (ip), vehicle: saline
[13] = dose: 25.0 mg/kg/injection, schedule: Q01DX009 (ip), vehicle: saline with Tween-80
[14] = dose: 50.0 mg/kg/injection, schedule: Q01DX009 (ip), vehicle: saline with Tween-80
[15] = dose: 12.5 mg/kg/injection, schedule: Q01DX001 (ip), vehicle: saline
[16] = dose: 25.0 mg/kg/injection, schedule: Q01DX001 (ip), vehicle: saline
[17] = dose: 50.0 mg/kg/injection, schedule: Q01DX001 (ip), vehicle: saline
[18] = dose: 100.0 mg/kg/injection, schedule: Q01DX009 (ip), vehicle: saline with Tween-80
[19] = dose: 200.0 mg/kg/injection, schedule: Q01DX009 (ip), vehicle: saline with Tween-80
[20] = dose: 100.0 mg/kg/injection, schedule: Q04DX003 (ip), vehicle: saline
[21] = dose: 200.0 mg/kg/injection, schedule: Q04DX003 (ip), vehicle: saline

Measured: T/C

O=C(Nc1ccc(Cl)cc1)OCC#CCOC(=O)Nc1ccc(Cl)cc1
inactive: dose: 75.0 mg/kg/injection, schedule: Q04DX003 (ip), vehicle: Klucel (hydroxypropylcellulose) (HPC) 93 % of control | dose: 100.0 mg/kg/injection, schedule: Q01DX001 (ip), vehicle: saline with Tween-80 90 % of control | dose: 100.0 mg/kg/injection, schedule: Q04DX003 (ip), vehicle: saline with Tween-80 88 % of control | dose: 150.0 mg/kg/injection, schedule: Q04DX003 (ip), vehicle: Klucel (hydroxypropylcellulose) (HPC) 93 % of control | dose: 200.0 mg/kg/injection, schedule: Q01DX001 (ip), vehicle: saline with Tween-80 88 % of control | dose: 300.0 mg/kg/injection, schedule: Q04DX003 (ip), vehicle: Klucel (hydroxypropylcellulose) (HPC) 98 % of control | dose: 400.0 mg/kg/injection, schedule: Q01DX001 (ip), vehicle: saline with Tween-80 90 % of control | dose: 400.0 mg/kg/injection, schedule: Q04DX003 (ip), vehicle: saline with Tween-80 90 % of control

CC1=C(C)CC2C(=O)C=CC(=O)C2C1 (stereo not drawn)
inactive: dose: 50.0 mg/kg/injection, schedule: Q01DX009 (ip), vehicle: water 97 % of control | dose: 100.0 mg/kg/injection, schedule: Q01DX009 (ip), vehicle: water 97 % of control and 101 % of control | dose: 100.0 mg/kg/injection, schedule: Q04DX003 (ip), vehicle: water 89 % of control | dose: 200.0 mg/kg/injection, schedule: Q01DX009 (ip), vehicle: water 95 % of control | dose: 200.0 mg/kg/injection, schedule: Q04DX003 (ip), vehicle: water 101 % of control

O=[N+]([O-])c1c(Cl)cc(Cl)c([N+](=O)[O-])c1-c1ccccc1
inactive: [1] 96 % of control | [2] 96 % of control | [3] 107 % of control

Cc1c(N=Nc2ccccc2)c(=O)[nH]n1-c1ccccc1
inactive: [4] 105 % of control | [5] 111 % of control | [6] 107 % of control | [7] 106 % of control | dose: 400.0 mg/kg/injection, schedule: Q01DX001 (ip), vehicle: Klucel (hydroxypropylcellulose) (HPC) 103 % of control | [8] 96 % of control

COc1ccc(OC)c([N+](=O)[O-])c1
inactive: [9] 100 % of control | [10] 100 % of control | [5] 93 % of control | [11] 105 % of control | dose: 200.0 mg/kg/injection, schedule: Q01DX009 (ip), vehicle: Klucel (hydroxypropylcellulose) (HPC) 94 % of control | [7] 95 % of control | [12] 96 % of control | dose: 400.0 mg/kg/injection, schedule: Q01DX009 (ip), vehicle: Klucel (hydroxypropylcellulose) (HPC) 88 % of control | [8] 93 % of control

NC(CCl)=NCc1ccccn1
inactive: dose: 100.0 mg/kg/injection, schedule: Q04DX002 (ip), vehicle: saline 96 % of control

COCCOCCOCCOCCOCCOC
inactive: dose: 12.5 mg/kg/injection, schedule: Q01DX009 (ip), vehicle: saline with Tween-80 104 % of control | [13] 94 % of control | [14] 105 % of control

CCN(CC)CCOC(=O)C1CC1(c1ccccc1)c1ccccc1 (stereo not drawn)
inactive: dose: 25.0 mg/kg/injection, schedule: Q01DX009 (ip), vehicle: Klucel (hydroxypropylcellulose) (HPC) 98 % of control | dose: 50.0 mg/kg/injection, schedule: Q01DX009 (ip), vehicle: Klucel (hydroxypropylcellulose) (HPC) 87 % of control | [10] 95 % of control and 98 % of control

CCOC(=O)Cn1c(=O)cc(C=O)c2ccccc21
inactive: [1] 91 % of control | [2] 91 % of control | [3] 89 % of control

O=C1OC(=O)C2C1C13CCCC1=C1CCC34C(=O)OC(=O)C43CC123 (stereo not drawn)
inactive: dose: 6.25 mg/kg/injection, schedule: Q01DX009 (ip), vehicle: saline 111 % of control | [15] 115 % of control | dose: 12.5 mg/kg/injection, schedule: Q01DX009 (ip), vehicle: saline 109 % of control | dose: 12.5 mg/kg/injection, schedule: Q04DX003 (ip), vehicle: saline 106 % of control | [16] 107 % of control | dose: 25.0 mg/kg/injection, schedule: Q04DX003 (ip), vehicle: saline 104 % of control | [17] 109 % of control

COc1ccc(-n2c(=O)c(N=Nc3ccccc3OC)c(O)n(-c3ccccc3C)c2=S)cc1
inactive: [4] 98 % of control | [6] 101 % of control

C1CCC2C[N-]CCC2C1.C1CCC2C[N-]CCC2C1.C1CCC2C[N-]CCC2C1.C1CCC2C[N-]CCC2C1.[I][Fe][I] (stereo not drawn)
inactive: dose: 50.0 mg/kg/injection, schedule: Q01DX009 (ip), vehicle: saline 89 % of control | dose: 100.0 mg/kg/injection, schedule: Q01DX009 (ip), vehicle: saline 94 % of control

O/N=C1\c2ccccc2-c2cc(Cl)ccc21
inactive: [1] 94 % of control | [2] 109 % of control | [3] 103 % of control

COC(=O)c1cc(C)c(C)cc1N
inactive: [9] 102 % of control | [11] 96 % of control | [12] 93 % of control

Cc1ccc(NC(N)=S)cc1C
inactive: [13] 105 % of control | [14] 90 % of control | [18] 86 % of control

O=C(CF)[O][Sb]([O]C(=O)CF)([c]1ccccc1)([c]1ccccc1)[c]1ccccc1
inactive: dose: 5.0 mg/kg/injection, schedule: Q04DX003 (ip), vehicle: saline with Tween-80 92 % of control | dose: 10.0 mg/kg/injection, schedule: Q04DX003 (ip), vehicle: saline with Tween-80 101 % of control | dose: 20.0 mg/kg/injection, schedule: Q04DX003 (ip), vehicle: saline with Tween-80 106 % of control

CCOP(=S)(OCC)SC(C)c1ccccc1 (stereo not drawn)
inactive: [14] 95 % of control | [18] 91 % of control | [19] 100 % of control

O=S(=O)(c1ccccc1)C1CC1c1ccccc1 (stereo not drawn)
inactive: dose: 50.0 mg/kg/injection, schedule: Q01DX009 (ip), vehicle: acetone 95 % of control | [9] 94 % of control | dose: 100.0 mg/kg/injection, schedule: Q01DX009 (ip), vehicle: acetone 93 % of control | [20] 98 % of control | [11] 102 % of control | dose: 200.0 mg/kg/injection, schedule: Q01DX009 (ip), vehicle: acetone 97 % of control | [21] 96 % of control | [12] 102 % of control | dose: 400.0 mg/kg/injection, schedule: Q04DX003 (ip), vehicle: saline 98 % of control

CCC(c1ccc(OC)cc1)C(CC)c1ccc(OCCN2CCCC2)cc1 (stereo not drawn)
inactive: [15] 94 % of control | [16] 94 % of control | [17] 95 % of control | [9] 97 % of control

Cc1ccccc1C1(c2ccccc2C)OC(=O)c2ccccc21
inactive: [18] 93 % of control | [19] 89 % of control | dose: 400.0 mg/kg/injection, schedule: Q01DX009 (ip), vehicle: saline with Tween-80 90 % of control

O=NN(CS(=O)(=O)O)c1ccccc1
inactive: [20] 98 % of control | [21] 103 % of control

CCC(C(OC(=O)Nc1ccc(Cl)c(Cl)c1)c1ccc(Cl)cc1)C(O)(C(F)(F)F)C(F)(F)F (stereo not drawn)
inactive: [5] 98 % of control | [7] 100 % of control | [8] 98 % of control
